Where “and” joins values, the source holds several entries; their conditions need not be identical. Equal values may be shown once. Read-outs that look alike come from different tables or passages of the source.
Assays:
Type in all cases: cell-based
[1] = test system: HL-60 human promyelocytic leukemia cells; assay: MTT cytotoxicity assay, HL-60 cells; details: for IC50: MTT, read-out: IC50
Experimental: (§1) For cytotoxicity experiments, cancer cells were seeded at a density of 5,000 (MCF-7), 10,000 (HL-60) or 2,000 cells/well (HCT116 and A549) in 96-well plates (TPP) for 24 h/37°C prior to the addition of examined agents. The non-cancerous cells, 3T3 and H9c2 cells, were cultured for 24 h/37°C in 96-well plates at a density of 10,000 cells/well, the medium was then changed to serum- and pyruvate-free DMEM (Sigma-Aldrich) and incubated with the cells for another 24 h/37°C. The cytotoxic effects of Bp4eT and its metabolites were studied at different concentrations after a 72 h/37°C incubation. In order to aid the dissolution of the lipophilic ligands, 0.1% dimethyl sulfoxide (v/v) (DMSO; Sigma-Aldrich) was present in the culture medium of all groups. At this concentration, DMSO had no effect on cellular proliferation or viability.
(§2) The viability of cells were determined using an MTT assay (Sigma-Aldrich) according to previously established methods. The optical density of soluble MTT was measured at λ = 570 nm, subtracting the λ = 690 nm background using a Tecan Infinite 200M plate reader (Tecan Group, Männedorf, Switzerland). The viability or proliferation of experimental groups was expressed as a percentage of the untreated controls (100%).
(§3) SigmaStat for Windows 3.5 (Systat Software, San Jose, CA, USA) statistical software package was utilized to analyze results. The data are expressed as the mean ± SD of a given number of experiments. Statistical significance was determined using a one-way ANOVA with a Bonferroni post-hoc test or Student’s t-test. The results were considered to be statistically significant when p < 0.05. The IC50 values were calculated using CalcuSyn 2.0 software (Biosoft, Cambridge, UK). Cell cycle analysis was evaluated using MultiCycle AV Software (Phoenix Flow Systems, San Diego, CA, USA).

[2] = test system: HCT116 human colorectal carcinoma cells; assay: MTT cytotoxicity assay, HCT116 cells; details: for IC50: MTT
Experimental: as §1, §2, §3

[3] = test system: MCF-7 human breast adenocarcinoma cells; assay: MTT cytotoxicity assay, MCF-7 cells; details: for IC50: Homo sapiens, MTT, read-out: IC50
Experimental: as §1, §2, §3

SMILES: CCNC(=O)NN=C(c1ccccc1)c1ccccn1 [E-Bp4eS, 2-benzoylpyridine 4-ethylsemicarbazone]
- Therapeutic index, IC50 non-cancerous cells / IC50 neoplastic cells ([1]; 3T3/HL-60): >6.6
- Therapeutic index, IC50 non-cancerous cells / IC50 neoplastic cells ([1]; H9c2/HL-60): 5.9
- IC50 ([1]; HL-60, 72 h/37°C, mean ± SD, n ≥ 4): 151 ± 9.1 µM
- MTT, relative to control (0 = 100) ([1]; HL-60, 10 000 b/j, 3 μM, průměr (mean), sheet E-Bp4eS): 97.96
- MTT, relative to control (0 = 100) ([1]; HL-60, 10 000 b/j, 3 μM, single experiment (date), sheet E-Bp4eS): 100.761 and 104.358 and 95.5768 and 91.1569
- MTT, relative to control (0 = 100) ([1]; HL-60, 10 000 b/j, 10 μM, průměr (mean), sheet E-Bp4eS): 99.97
- MTT, relative to control (0 = 100) ([1]; HL-60, 10 000 b/j, 10 μM, single experiment (date), sheet E-Bp4eS): 101.567 and 98.1615 and 96.1949 and 103.964
- MTT, relative to control (0 = 100) ([1]; HL-60, 10 000 b/j, 30 μM, průměr (mean), sheet E-Bp4eS): 95.62
- MTT, relative to control (0 = 100) ([1]; HL-60, 10 000 b/j, 30 μM, single experiment (date), sheet E-Bp4eS): 99.0132 and 96.6154 and 90.9257 and 95.914
- MTT, relative to control (0 = 100) ([1]; HL-60, 10 000 b/j, 100 μM, průměr (mean), sheet E-Bp4eS): 79.54
- MTT, relative to control (0 = 100) ([1]; HL-60, 10 000 b/j, 100 μM, single experiment (date), sheet E-Bp4eS): 81.2266 and 75.7782 and 76.5508 and 84.6199
- MTT, relative to control (0 = 100) ([1]; HL-60, 10 000 b/j, 120 μM, průměr (mean), sheet E-Bp4eS): 74.92
- MTT, relative to control (0 = 100) ([1]; HL-60, 10 000 b/j, 120 μM, single experiment (date), sheet E-Bp4eS): 75.3051 and 80.9667 and 70.8568 and 72.5675
- MTT, relative to control (0 = 100) ([1]; HL-60, 10 000 b/j, 140 μM, průměr (mean), sheet E-Bp4eS): 62.34
- MTT, relative to control (0 = 100) ([1]; HL-60, 10 000 b/j, 140 μM, single experiment (date), sheet E-Bp4eS): 62.4842 and 69.381 and 45.4725 and 72.037
- MTT, relative to control (0 = 100) ([1]; HL-60, 10 000 b/j, 150 μM, průměr (mean), sheet E-Bp4eS): 38.39
- MTT, relative to control (0 = 100) ([1]; HL-60, 10 000 b/j, 300 μM, průměr (mean), sheet E-Bp4eS): 3.81
- IC50 ([1]; HL-60, 10 000 b/j, single experiment (date), sheet E-Bp4eS): 159 µM and 144 µM and 141 µM
- IC50 ([1]; Homo sapiens, HL-60, HL-60, 10 000 b/j, průměr (mean), sheet E-Bp4eS): 150 µM
- IC50 ([1]; Homo sapiens, HL-60, HL-60, 10 000 b/j, single experiment (date), sheet E-Bp4eS): 158 µM
- Therapeutic index, IC50 non-cancerous cells / IC50 neoplastic cells ([2]; 3T3/HCT116): >10.5
- Therapeutic index, IC50 non-cancerous cells / IC50 neoplastic cells ([2]; H9c2/HCT116): 9.3
- IC50 ([2]; HCT116, 72 h/37°C, mean ± SD, n ≥ 4): 95.4 ± 10.4 µM
- MTT, relative to control (0 = 100) ([2]; HCT116, 2 000 b/j, 1 μM, průměr (mean), sheet E-Bp4eS): 93.86
- MTT, relative to control (0 = 100) ([2]; HCT116, 2 000 b/j, 1 μM, single experiment (date), sheet E-Bp4eS): 90.5387 and 95.2075 and 90.3432 and 99.3608
- MTT, relative to control (0 = 100) ([2]; HCT116, 2 000 b/j, 3 μM, průměr (mean), sheet E-Bp4eS): 91.05
- MTT, relative to control (0 = 100) ([2]; HCT116, 2 000 b/j, 3 μM, single experiment (date), sheet E-Bp4eS): 88.1499 and 86.4536 and 88.7606 and 100.823
- MTT, relative to control (0 = 100) ([2]; HCT116, 2 000 b/j, 10 μM, průměr (mean), sheet E-Bp4eS): 89.35
- MTT, relative to control (0 = 100) ([2]; HCT116, 2 000 b/j, 10 μM, single experiment (date), sheet E-Bp4eS): 79.5919 and 93.1715 and 88.2723 and 96.3507
- MTT, relative to control (0 = 100) ([2]; HCT116, 2 000 b/j, 30 μM, průměr (mean), sheet E-Bp4eS): 86.47
- MTT, relative to control (0 = 100) ([2]; HCT116, 2 000 b/j, 30 μM, single experiment (date), sheet E-Bp4eS): 82.3738 and 90.947 and 82.3476 and 90.2168
- MTT, relative to control (0 = 100) ([2]; HCT116, 2 000 b/j, 100 μM, průměr (mean), sheet E-Bp4eS): 59.19
- MTT, relative to control (0 = 100) ([2]; HCT116, 2 000 b/j, 100 μM, single experiment (date), sheet E-Bp4eS): 61.842 and 75.8026 and 45.1438 and 53.9757
- MTT, relative to control (0 = 100) ([2]; HCT116, 2 000 b/j, 300 μM, průměr (mean), sheet E-Bp4eS): 9.27
- MTT, relative to control (0 = 100) ([2]; HCT116, 2 000 b/j, 1000 μM, průměr (mean), sheet E-Bp4eS): 7.18
- MTT, relative to control (0 = 100) ([2]; HCT116, 2 000 b/j, 1000 μM, single experiment (date), sheet E-Bp4eS): 7.957 and 7.9705 and 6.656 and 6.131
- IC50 ([2]; HCT116, 2 000 b/j, single experiment (date), sheet E-Bp4eS): 108 µM and 85.2 µM and 99.1 µM
- IC50 ([2]; Homo sapiens, HCT-116, HCT116, 2 000 b/j, průměr (mean), sheet E-Bp4eS): 95.4 µM
- IC50 ([2]; Homo sapiens, HCT-116, HCT116, 2 000 b/j, single experiment (date), sheet E-Bp4eS): 89.2 µM
- Therapeutic index, IC50 non-cancerous cells / IC50 neoplastic cells ([3]; 3T3/MCF-7): >4.8
- Therapeutic index, IC50 non-cancerous cells / IC50 neoplastic cells ([3]; H9c2/MCF-7): 4.2
- IC50 ([3]; MCF7, 72 h, MCF-7, 72 h/37°C, mean ± SD, n ≥ 4): 208 ± 43.9 µM
- IC50 ([3]; MCF7, MCF-7, 5 000 b/j, průměr (mean)): 209 µM
- IC50 ([3]; MCF7, MCF-7, 5 000 b/j, single experiment (by date)): 194 µM
